{
  "source": "paper PMC5078040",
  "about": "(Oncotarget, 2016)",
  "key": {"[1]": {"molecular_target": "PI3Kδ (Homo sapiens, UniProt O00329)", "assay": "Kinase kinetic assay (ATP competition, ADP-Glo)", "format": "biochemical", "details": "varied ATP concentration", "procedure": "Kinetic analyses of PI3KCD were performed using a luminometric kinase assay varying the concentration of ATP using the ADP-Glo reagents (Promega). […] After 60 min incubation at RT, varied concentrations of ATP, 0.1mM substrate PIP2:PS were added and incubated for 60 min at 37°C. The overall rate of reaction was determined as the slope of the decreasing phase of the reaction. Each data point was collected in duplicate and kinetic parameters were obtained using Prism 5.0 (GraphPad Software, San Diego, CA)."}, "[2]": {"molecular_target": "T1, ABL1(E255K)-phosphorylated (Homo sapiens, UniProt P00519, E255K)", "T1 construct": "purchased DiscoveRx KINOMEscan", "assay": "KinomeScan", "format": "binding", "details": "1uM"}, "[3]": {"molecular_target": "T2, ABL1(F317L)-nonphosphorylated (Homo sapiens, UniProt P00519, F317L)", "T2 construct": "purchased DiscoveRx KINOMEscan", "assay": "KinomeScan", "format": "binding", "details": "1uM"}, "[4]": {"molecular_target": "T3, ACVR2A (Homo sapiens, UniProt P27037)", "T3 construct": "purchased DiscoveRx KINOMEscan", "assay": "KinomeScan", "format": "binding", "details": "1uM"}, "[5]": {"molecular_target": "T4, ADCK3 (Homo sapiens, UniProt Q8NI60)", "T4 construct": "purchased DiscoveRx KINOMEscan", "assay": "KinomeScan", "format": "binding", "details": "1uM"}, "[6]": {"molecular_target": "T5, AKT2 (Homo sapiens, UniProt P31751)", "T5 construct": "purchased DiscoveRx KINOMEscan", "assay": "KinomeScan", "format": "binding", "details": "1uM"}, "[7]": {"molecular_target": "T6, BMPR1A (Homo sapiens, UniProt P36894)", "T6 construct": "purchased DiscoveRx KINOMEscan", "T6 sequence (P36894 24-532)": "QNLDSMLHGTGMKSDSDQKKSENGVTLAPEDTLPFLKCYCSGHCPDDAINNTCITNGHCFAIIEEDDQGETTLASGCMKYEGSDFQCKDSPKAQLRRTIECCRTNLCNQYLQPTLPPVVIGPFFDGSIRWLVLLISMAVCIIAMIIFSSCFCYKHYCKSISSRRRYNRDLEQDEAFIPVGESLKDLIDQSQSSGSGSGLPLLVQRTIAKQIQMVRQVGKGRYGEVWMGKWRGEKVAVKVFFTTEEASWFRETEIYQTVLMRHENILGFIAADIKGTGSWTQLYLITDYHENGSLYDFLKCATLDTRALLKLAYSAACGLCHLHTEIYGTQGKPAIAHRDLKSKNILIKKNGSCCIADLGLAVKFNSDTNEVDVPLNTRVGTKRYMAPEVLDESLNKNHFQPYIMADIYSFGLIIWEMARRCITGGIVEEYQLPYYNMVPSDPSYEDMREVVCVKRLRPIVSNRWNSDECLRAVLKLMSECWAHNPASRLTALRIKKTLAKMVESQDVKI", "assay": "KinomeScan", "format": "binding", "details": "1uM"}, "[8]": {"molecular_target": "T7, BMX (Homo sapiens, UniProt P51813)", "T7 construct": "purchased DiscoveRx KINOMEscan", "assay": "KinomeScan", "format": "binding", "details": "1uM"}, "[9]": {"molecular_target": "T8, BRK (Homo sapiens, UniProt Q13882)", "T8 construct": "purchased DiscoveRx KINOMEscan", "assay": "KinomeScan", "format": "binding", "details": "1uM"}, "[10]": {"molecular_target": "T9, CAMK1 (Homo sapiens, UniProt Q14012)", "T9 construct": "purchased DiscoveRx KINOMEscan", "assay": "KinomeScan", "format": "binding", "details": "1uM"}, "[11]": {"molecular_target": "T10, CSK (Homo sapiens, UniProt P41240)", "T10 construct": "purchased DiscoveRx KINOMEscan", "assay": "KinomeScan", "format": "binding", "details": "1uM"}, "[12]": {"molecular_target": "T11, EGFR(E746-A750del) (Homo sapiens, UniProt P00533, DEL746-750)", "T11 construct": "purchased DiscoveRx KINOMEscan", "T11 sequence (P00533 with tags, fused parts or gaps DEL746-750 limits assumed)": "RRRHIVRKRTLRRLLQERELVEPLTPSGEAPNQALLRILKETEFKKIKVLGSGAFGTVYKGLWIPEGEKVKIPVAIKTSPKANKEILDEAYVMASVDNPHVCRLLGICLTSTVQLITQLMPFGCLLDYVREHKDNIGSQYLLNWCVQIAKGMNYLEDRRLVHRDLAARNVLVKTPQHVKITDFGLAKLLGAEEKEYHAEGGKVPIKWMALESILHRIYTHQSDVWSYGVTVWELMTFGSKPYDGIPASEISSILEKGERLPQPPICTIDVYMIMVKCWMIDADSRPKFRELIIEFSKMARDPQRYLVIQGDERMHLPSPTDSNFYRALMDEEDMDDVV", "assay": "KinomeScan", "format": "binding", "details": "1uM"}, "[13]": {"molecular_target": "T12, EPHB2 (Homo sapiens, UniProt P29323)", "T12 construct": "purchased DiscoveRx KINOMEscan", "assay": "KinomeScan", "format": "binding", "details": "1uM"}, "[14]": {"molecular_target": "T13, ICK (Homo sapiens, UniProt Q9UPZ9)", "T13 construct": "purchased DiscoveRx KINOMEscan", "assay": "KinomeScan", "format": "binding", "details": "1uM"}, "[15]": {"molecular_target": "T14, KIT(A829P) (Homo sapiens, UniProt P10721, A829P)", "T14 construct": "purchased DiscoveRx KINOMEscan", "T14 sequence (P10721 26-976 A829P)": "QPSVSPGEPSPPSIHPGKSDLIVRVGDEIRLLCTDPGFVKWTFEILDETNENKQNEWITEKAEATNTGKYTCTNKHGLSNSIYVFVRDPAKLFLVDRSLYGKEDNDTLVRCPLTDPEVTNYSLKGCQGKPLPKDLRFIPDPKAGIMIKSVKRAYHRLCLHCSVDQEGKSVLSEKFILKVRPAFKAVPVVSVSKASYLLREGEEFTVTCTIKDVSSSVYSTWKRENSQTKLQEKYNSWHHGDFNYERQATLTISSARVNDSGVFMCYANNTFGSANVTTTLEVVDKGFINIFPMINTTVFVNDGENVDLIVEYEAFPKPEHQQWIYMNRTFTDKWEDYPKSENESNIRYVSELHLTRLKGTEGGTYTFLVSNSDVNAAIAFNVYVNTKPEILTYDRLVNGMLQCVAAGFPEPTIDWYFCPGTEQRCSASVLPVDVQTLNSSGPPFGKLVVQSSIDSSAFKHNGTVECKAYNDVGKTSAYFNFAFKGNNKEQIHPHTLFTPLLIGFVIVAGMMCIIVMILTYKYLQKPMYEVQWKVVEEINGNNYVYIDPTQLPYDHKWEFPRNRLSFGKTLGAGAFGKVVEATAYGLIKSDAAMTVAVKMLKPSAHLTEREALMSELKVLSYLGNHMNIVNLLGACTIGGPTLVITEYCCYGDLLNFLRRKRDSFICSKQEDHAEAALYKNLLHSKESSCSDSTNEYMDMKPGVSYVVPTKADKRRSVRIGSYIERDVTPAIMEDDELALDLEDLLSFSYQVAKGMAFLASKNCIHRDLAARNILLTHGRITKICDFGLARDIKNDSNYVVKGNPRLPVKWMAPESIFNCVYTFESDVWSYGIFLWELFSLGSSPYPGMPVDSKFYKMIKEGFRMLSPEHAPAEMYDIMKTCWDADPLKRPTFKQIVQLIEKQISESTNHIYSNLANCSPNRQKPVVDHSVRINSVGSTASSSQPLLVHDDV", "assay": "KinomeScan", "format": "binding", "details": "1uM"}, "[16]": {"molecular_target": "T15, MAP3K3 (Homo sapiens, UniProt Q99759)", "T15 construct": "purchased DiscoveRx KINOMEscan", "assay": "KinomeScan", "format": "binding", "details": "1uM"}, "[17]": {"molecular_target": "T16, MEK4 (Homo sapiens, UniProt P45985)", "T16 construct": "purchased DiscoveRx KINOMEscan", "T16 sequence (P45985 whole entry)": "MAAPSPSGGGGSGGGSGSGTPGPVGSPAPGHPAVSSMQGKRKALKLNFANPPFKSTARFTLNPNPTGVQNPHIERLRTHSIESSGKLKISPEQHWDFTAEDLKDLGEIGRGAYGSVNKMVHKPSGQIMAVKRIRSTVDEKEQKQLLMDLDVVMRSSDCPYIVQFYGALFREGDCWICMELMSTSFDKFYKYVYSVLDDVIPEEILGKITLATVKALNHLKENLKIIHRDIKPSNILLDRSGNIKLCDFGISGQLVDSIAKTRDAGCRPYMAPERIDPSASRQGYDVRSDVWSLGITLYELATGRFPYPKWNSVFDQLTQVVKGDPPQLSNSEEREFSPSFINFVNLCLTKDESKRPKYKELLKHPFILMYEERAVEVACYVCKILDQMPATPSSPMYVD", "assay": "KinomeScan", "format": "binding", "details": "1uM"}, "[18]": {"molecular_target": "T17, MKK7 (Homo sapiens, UniProt O14733)", "T17 construct": "purchased DiscoveRx KINOMEscan", "assay": "KinomeScan", "format": "binding", "details": "1uM"}, "[19]": {"molecular_target": "T18, MTOR (Homo sapiens, UniProt P42345)", "T18 construct": "purchased DiscoveRx KINOMEscan", "assay": "KinomeScan", "format": "binding", "details": "1uM"}, "[20]": {"molecular_target": "T19, NEK3 (Homo sapiens, UniProt P51956)", "T19 construct": "purchased DiscoveRx KINOMEscan", "assay": "KinomeScan", "format": "binding", "details": "1uM"}, "[21]": {"molecular_target": "T20, PAK4 (Homo sapiens, UniProt O96013)", "T20 construct": "purchased DiscoveRx KINOMEscan", "T20 sequence (O96013 whole entry)": "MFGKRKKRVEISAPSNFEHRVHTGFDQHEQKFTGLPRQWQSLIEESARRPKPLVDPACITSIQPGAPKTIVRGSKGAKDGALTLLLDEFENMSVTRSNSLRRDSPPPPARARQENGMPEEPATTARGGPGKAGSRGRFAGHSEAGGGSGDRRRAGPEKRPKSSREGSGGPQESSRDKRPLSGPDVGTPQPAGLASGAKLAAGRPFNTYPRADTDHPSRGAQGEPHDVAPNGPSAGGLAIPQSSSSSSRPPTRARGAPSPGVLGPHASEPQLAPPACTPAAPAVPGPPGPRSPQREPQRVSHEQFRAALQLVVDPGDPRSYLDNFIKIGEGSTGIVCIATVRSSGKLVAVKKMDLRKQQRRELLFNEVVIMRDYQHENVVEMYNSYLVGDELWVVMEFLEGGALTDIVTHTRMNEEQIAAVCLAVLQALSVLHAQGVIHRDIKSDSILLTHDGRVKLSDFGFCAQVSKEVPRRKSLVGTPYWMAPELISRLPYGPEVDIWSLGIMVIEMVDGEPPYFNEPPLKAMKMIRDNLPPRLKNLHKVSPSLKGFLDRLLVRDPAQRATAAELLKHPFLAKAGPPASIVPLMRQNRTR", "assay": "KinomeScan", "format": "binding", "details": "1uM"}, "[22]": {"molecular_target": "T21, PFPK5(P.falciparum) (Plasmodium falciparum, UniProt P61075)", "T21 construct": "purchased DiscoveRx KINOMEscan", "assay": "KinomeScan", "format": "binding", "details": "1uM"}, "[23]": {"molecular_target": "T22, PRKX (Homo sapiens, UniProt P51817)", "T22 construct": "purchased DiscoveRx KINOMEscan", "assay": "KinomeScan", "format": "binding", "details": "1uM"}, "[24]": {"molecular_target": "T23, RSK1(Kin.Dom.2-C-terminal) (Homo sapiens, UniProt Q15418)", "T23 construct": "RSK1(Kin.Dom.2-C-terminal); purchased DiscoveRx KINOMEscan", "assay": "KinomeScan", "format": "binding", "details": "1uM"}, "[25]": {"molecular_target": "T24, RSK2(Kin.Dom.2-C-terminal) (Homo sapiens, UniProt P51812)", "T24 construct": "RSK2(Kin.Dom.2-C-terminal); purchased DiscoveRx KINOMEscan", "T24 sequence (P51812 398-740 limits assumed)": "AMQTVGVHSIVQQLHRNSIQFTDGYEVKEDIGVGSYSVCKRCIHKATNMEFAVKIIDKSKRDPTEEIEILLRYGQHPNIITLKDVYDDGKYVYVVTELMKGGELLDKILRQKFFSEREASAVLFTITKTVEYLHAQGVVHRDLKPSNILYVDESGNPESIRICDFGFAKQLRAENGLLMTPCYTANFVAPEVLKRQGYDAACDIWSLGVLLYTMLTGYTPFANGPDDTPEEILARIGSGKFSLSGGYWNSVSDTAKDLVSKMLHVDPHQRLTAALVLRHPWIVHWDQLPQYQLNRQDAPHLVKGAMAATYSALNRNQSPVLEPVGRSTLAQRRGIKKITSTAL", "assay": "KinomeScan", "format": "binding", "details": "1uM"}, "[26]": {"molecular_target": "T25, SRC (Homo sapiens, UniProt P12931)", "T25 construct": "purchased DiscoveRx KINOMEscan", "T25 sequence (P12931 whole entry)": "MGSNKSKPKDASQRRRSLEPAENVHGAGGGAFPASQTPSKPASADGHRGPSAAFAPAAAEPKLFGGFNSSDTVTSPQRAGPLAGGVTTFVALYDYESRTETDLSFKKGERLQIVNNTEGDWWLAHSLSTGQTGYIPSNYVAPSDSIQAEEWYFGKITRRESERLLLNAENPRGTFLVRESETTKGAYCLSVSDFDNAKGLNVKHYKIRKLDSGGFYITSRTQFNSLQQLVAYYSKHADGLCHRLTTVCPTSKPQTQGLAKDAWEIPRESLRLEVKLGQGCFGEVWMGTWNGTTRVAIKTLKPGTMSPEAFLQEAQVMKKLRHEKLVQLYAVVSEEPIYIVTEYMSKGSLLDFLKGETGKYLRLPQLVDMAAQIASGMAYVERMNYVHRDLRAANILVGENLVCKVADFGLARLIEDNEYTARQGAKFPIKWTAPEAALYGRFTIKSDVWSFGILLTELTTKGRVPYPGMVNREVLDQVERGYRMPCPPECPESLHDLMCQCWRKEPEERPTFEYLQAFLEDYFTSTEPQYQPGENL", "assay": "KinomeScan", "format": "binding", "details": "1uM"}, "[27]": {"molecular_target": "T26, TAK1 (Homo sapiens, UniProt O43318)", "T26 construct": "purchased DiscoveRx KINOMEscan", "T26 sequence (O43318 whole entry)": "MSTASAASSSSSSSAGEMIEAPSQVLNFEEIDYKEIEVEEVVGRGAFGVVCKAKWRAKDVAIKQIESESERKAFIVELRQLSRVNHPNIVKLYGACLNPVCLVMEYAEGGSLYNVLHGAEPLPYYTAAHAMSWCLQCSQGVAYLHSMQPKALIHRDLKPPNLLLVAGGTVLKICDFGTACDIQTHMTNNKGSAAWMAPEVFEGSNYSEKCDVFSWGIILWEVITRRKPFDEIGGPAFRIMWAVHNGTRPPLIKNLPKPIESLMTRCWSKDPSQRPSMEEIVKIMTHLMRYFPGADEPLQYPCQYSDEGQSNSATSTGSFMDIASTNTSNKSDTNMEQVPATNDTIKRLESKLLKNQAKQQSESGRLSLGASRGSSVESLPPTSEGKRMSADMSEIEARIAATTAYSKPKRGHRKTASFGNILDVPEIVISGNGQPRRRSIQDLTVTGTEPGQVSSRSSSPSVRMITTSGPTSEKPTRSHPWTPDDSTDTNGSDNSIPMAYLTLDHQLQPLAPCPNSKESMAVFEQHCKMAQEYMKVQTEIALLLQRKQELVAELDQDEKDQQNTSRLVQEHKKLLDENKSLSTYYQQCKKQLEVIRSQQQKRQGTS", "assay": "KinomeScan", "format": "binding", "details": "1uM"}, "[28]": {"molecular_target": "T27, TBK1 (Homo sapiens, UniProt Q9UHD2)", "T27 construct": "purchased DiscoveRx KINOMEscan", "assay": "KinomeScan", "format": "binding", "details": "1uM"}, "[29]": {"molecular_target": "T28, TIE1 (Homo sapiens, UniProt P35590)", "T28 construct": "purchased DiscoveRx KINOMEscan", "assay": "KinomeScan", "format": "binding", "details": "1uM"}, "[30]": {"molecular_target": "T29, TNK1 (Homo sapiens, UniProt Q13470)", "T29 construct": "purchased DiscoveRx KINOMEscan", "T29 sequence (Q13470 whole entry)": "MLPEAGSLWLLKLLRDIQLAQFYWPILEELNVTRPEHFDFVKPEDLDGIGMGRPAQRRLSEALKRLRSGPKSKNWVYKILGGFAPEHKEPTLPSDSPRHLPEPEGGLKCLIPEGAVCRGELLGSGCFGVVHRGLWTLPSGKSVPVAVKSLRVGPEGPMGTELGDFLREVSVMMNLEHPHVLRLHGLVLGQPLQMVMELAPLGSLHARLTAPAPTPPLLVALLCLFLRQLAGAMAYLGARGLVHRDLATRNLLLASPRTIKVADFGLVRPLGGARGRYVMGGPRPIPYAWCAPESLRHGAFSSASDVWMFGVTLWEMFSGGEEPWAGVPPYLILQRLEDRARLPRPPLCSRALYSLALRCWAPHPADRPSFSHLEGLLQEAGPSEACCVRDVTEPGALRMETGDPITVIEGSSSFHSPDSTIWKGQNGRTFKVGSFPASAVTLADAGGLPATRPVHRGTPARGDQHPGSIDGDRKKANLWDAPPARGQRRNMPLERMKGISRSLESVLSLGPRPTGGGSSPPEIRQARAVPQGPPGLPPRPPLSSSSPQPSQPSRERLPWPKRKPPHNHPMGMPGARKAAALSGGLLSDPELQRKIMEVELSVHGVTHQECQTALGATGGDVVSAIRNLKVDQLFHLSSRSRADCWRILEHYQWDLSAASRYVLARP", "assay": "KinomeScan", "format": "binding", "details": "1uM"}, "[31]": {"molecular_target": "T30, YANK1 (Homo sapiens, UniProt Q8WU08)", "T30 construct": "purchased DiscoveRx KINOMEscan", "assay": "KinomeScan", "format": "binding", "details": "1uM"}, "[32]": {"molecular_target": "T31, Vps34 (Homo sapiens, UniProt Q8NEB9)", "T31 construct": "purchased Invitrogen", "assay": "ADP-glo biochemical assay"}, "[33]": {"molecular_target": "T32, PI4KA (Homo sapiens, UniProt P42356)", "T32 construct": "purchased Invitrogen", "assay": "ADP-glo biochemical assay"}, "[34]": {"system": "HT (B-NHL)", "assay": "Colony formation assay", "format": "cell-based", "details": "Homo sapiens, HT15, 360 h, 15 days, read-out: anti-colony formation EC50", "procedure": "(§1) In brief, 1 mL of 3 % agarose combined with 1 mL HT, REC-1, MEC-1 and MOLM-13 growth media was used as the bottom agar in a 6-well plate. […] Cells were maintained in a humidified 5% CO2 incubator at 37°C for 15 days. On the 15th day, the numbers of colonies in each well were counted and each measurement was performed in triplicate."}, "[35]": {"system": "MEC-1 (CLL)", "assay": "Colony formation assay", "format": "cell-based", "details": "Homo sapiens, MEC1, 360 h; MEC-1, 15 days; read-out: anti-colony formation EC50", "procedure": "as §1"}, "[36]": {"system": "MOLM13 (AML)", "assay": "Colony formation assay", "format": "cell-based", "details": "Homo sapiens, MOLM-13, 360 h; MOLM13, 15 days; read-out: anti-colony formation EC50", "procedure": "as §1"}},
  "data": [
    {"molecule": "Cc1nc(NC(=O)[C@@H](N)C(C)C)sc1-c1cnc(Cl)c(NS(=O)(=O)c2ccccc2)c1", "note": "[PI3KD-IN-015]", "values": [
      {"measurement": "binding kinetics / mode of inhibition", "setting": "[1]", "result": "ATP competitive inhibitor"},
      {"measurement": "KinomeScan ABL1(E255K)-phosphorylated", "setting": "[2]", "result": 77},
      {"measurement": "KinomeScan ABL1(F317L)-nonphosphorylated", "setting": "[3]", "result": 100},
      {"measurement": "KinomeScan ACVR2A", "setting": "[4]", "result": 100},
      {"measurement": "KinomeScan ADCK3", "setting": "[5]", "result": 100},
      {"measurement": "KinomeScan AKT2", "setting": "[6]", "result": 86},
      {"measurement": "KinomeScan BMPR1A", "setting": "[7]", "result": 84},
      {"measurement": "KinomeScan BMX", "setting": "[8]", "result": 100},
      {"measurement": "KinomeScan BRK", "setting": "[9]", "result": 92},
      {"measurement": "KinomeScan CAMK1", "setting": "[10]", "result": 98},
      {"measurement": "KinomeScan CSK", "setting": "[11]", "result": 90},
      {"measurement": "KinomeScan EGFR(E746-A750del)", "setting": "[12]", "result": 100},
      {"measurement": "KinomeScan EPHB2", "setting": "[13]", "result": 100},
      {"measurement": "KinomeScan ICK", "setting": "[14]", "result": 95},
      {"measurement": "KinomeScan KIT(A829P)", "setting": "[15]", "result": 96},
      {"measurement": "KinomeScan MAP3K3", "setting": "[16]", "result": 100},
      {"measurement": "KinomeScan MEK4", "setting": "[17]", "result": 100},
      {"measurement": "KinomeScan MKK7", "setting": "[18]", "result": 98},
      {"measurement": "KinomeScan MTOR", "setting": "[19]", "result": 28},
      {"measurement": "KinomeScan NEK3", "setting": "[20]", "result": 100},
      {"measurement": "KinomeScan PAK4", "setting": "[21]", "result": 100},
      {"measurement": "KinomeScan PFPK5(P.falciparum)", "setting": "[22]", "result": 100},
      {"measurement": "KinomeScan PRKX", "setting": "[23]", "result": 95},
      {"measurement": "KinomeScan RSK1(Kin.Dom.2-C-terminal)", "setting": "[24]", "result": 96},
      {"measurement": "KinomeScan RSK2(Kin.Dom.2-C-terminal)", "setting": "[25]", "result": 100},
      {"measurement": "KinomeScan SRC", "setting": "[26]", "result": 91},
      {"measurement": "KinomeScan TAK1", "setting": "[27]", "result": 100},
      {"measurement": "KinomeScan TBK1", "setting": "[28]", "result": 100},
      {"measurement": "KinomeScan TIE1", "setting": "[29]", "result": 94},
      {"measurement": "KinomeScan TNK1", "setting": "[30]", "result": 100},
      {"measurement": "KinomeScan YANK1", "setting": "[31]", "result": 100},
      {"measurement": "IC50", "setting": "[32]", "result": 280, "unit": "nM"},
      {"measurement": "IC50", "setting": "[33]", "result": "> 10000", "unit": "nM"},
      {"measurement": "EC50", "setting": "[34]", "result": 374, "unit": "nM"},
      {"measurement": "EC50", "setting": "[35]", "result": 765, "unit": "nM"},
      {"measurement": "EC50", "setting": "[36]", "result": 215, "unit": "nM"}
    ]}
  ]
}
